From paper PMC11507441, “Oilseed Cakes: A Promising Source of Antioxidant, and Anti-Inflammatory Agents—Insights from Lactuca sativa” (International Journal of Molecular Sciences, 2024)
≈ marks a conversion by molar mass, not a printed value.

How the values were obtained:
[1] = tested on: CAT; assay: CAT activity in rat paw tissue homogenate (carrageenan model); type: in vivo; conditions: for CAT (U/gm Tissue): paw tissue 5 h after carrageenan
Experimental: The levels of inflammatory mediators (IL-1β, TNF-α, and PGE2) in rat paw tissue homogenate were measured using the following Kits: Rat TNF-α (Tumor Necrosis Factor Alpha) ELISA Kit from Elabscience® Company, Houston, TX, USA, Interleukin 1 Beta (IL-1b) Organism Species: Rattus norvegicus (Rat) from Cloud Clone Crop Company and Rat PGE2 (Prostaglandin E2) ELISA Kit from Fine test® company Hubei, China. In addition, oxidative stress parameters in rat paw tissue homogenate were measured using superoxide dismutase, glutathione peroxidase, and catalase Kits from the Biodiagnostic company, Birmingham, UK.
Rats were slaughtered, and their paw tissues were gathered and weighed five hours after the carrageenan was administered. The tissues underwent processing after being fixed in 10% formalin. Rat paw tissue was homogenized, and its oxidative stress indices (SOD, CAT, and GPx) as well as the levels of inflammatory mediators (IL-1β, TNF-α, and PGE2) were measured.

[2] = tested on: HepG-2 cancer cell line; assay: Cytotoxic activity (MTT assay); type: cell-based
Experimental: (§1) The HPLC was performed in the Institute for Plant Biology, TU Braunschweig, using a Young Lin quaternary pump, vacuum degasser, column oven (40 °C), diode array detector (YL9160 PDA), and a Midas Spark Holland autosampler. UV spectra (λ max) were measured in the central laboratory of the Faculty of Pharmaceutical Science at Mansoura University using spectroscopic methanol with an ultraviolet-visible spectrophotometer (Shimadzu 1601 PC, version TCC-240A, Kyoto, Japan). The NMR unit of Mansoura University’s Faculty of Pharmacy obtained nuclear magnetic resonance spectra (^1H-NMR, ^13C-NMR, DEPT-Q, APT, HSQC, and HMBC) using a Bruker DRX 600 NMR spectrometer (600 and 150 MHz for ^1H and ^13C-NMR, respectively) and with the Bruker Corporation Avance III 400 spectrometer, which measures ^1H and ^13C-NMR at 400 and 100 MHz, respectively. The types of solvents that are used are CDCl3, CD3OD, and DMSO-d6. For normal phase chromatography, silica gel G 60–230 mesh (Merck, Darmstadt, Germany) was packed using a wet or dry method in the specified solvent. The purchase of Normal Human lung fibroblast (WI-38), hepatic cancer cell lines (HePG-2), and mammary gland (MCF-7) cell lines from ATCC was made possible by the Holding firm for biological goods and vaccines (VACSERA), which is based in Cairo, Egypt.
(§2) Using the MTT test, the inhibitory effects of substances on cell growth were ascertained using the cell lines compared to normal lung fibroblast cells (WI-38). The selectivity index was calculated via the Selectivity index (SI) equation: SI equals IC50 normal/IC50 cancer.

[3] = tested on: MCF-7 cancer cell line; assay: Cytotoxic activity (MTT assay); type: cell-based
Experimental: as §1, §2

[4] = tested on: P. aeruginosa; assay: Antimicrobial screening, zone of inhibition; type: cell-based; conditions: Table 1
Experimental: The procedure was performed according to Stylianakis et al.. A comparison of the extract’s zone of inhibition to that of a reference antibiotic’s activity index was determined using the following equation:Activity index = (the inhibition zone of extract/the inhibition zone of the standard) × 100

[5] = tested on: dermal inflammation; assay: Histopathological assessment of paw skin tissue (carrageenan model); type: in vivo, rat; conditions: 5 h after carrageenan
Excerpt: Five hours following the carrageenan injection, tissue specimen samples from the paw skin tissue of every group under study were removed for histological examination. Prior to being submerged in paraffin blocks, they were fixed in a 10% formalin solution and stained with hematoxylin-eosin. Using a microtome, paraffin sections with a thickness of 5 µm were cut, and hematoxylin and eosin were frequently applied to the sections. Microscopically, these tissue slices were inspected. Consequently, the sections were examined under a light microscope; on the other hand, photos taken with a digital camera (Canon Power-shot D10) recorded the progression of paw oedema.

[6] = IC50 normal (WI-38)/IC50 cancer

With NC(CO)C(O)c1ccc2c(c1)OCO2 (centres unmarked) [Compound 1, 1,3-propanediol-2-amino-1-(3′,4′-methylenedioxyphenyl)] the CAT activity restored ([1]; 40 mg/kg, compared to the control group) was 72.08%, the “CAT (U/gm Tissue)” value ([1]; 20 mg/kg) was 1.50 ± 0.19 U/gm Tissue and the “CAT (U/gm Tissue)” value ([1]; 40 mg/kg) was 2.04 ± 0.26 U/gm Tissue. The IC50 ([2]; Homo sapiens, HepG2, MTT, read-out: In Vitro Cytotoxicity IC50 (µg/mL) HepG-2) was 82.8 ± 4.1 µg/mL (≈ 392 µM), the “Selectivity Index HepG2” value [2, 6] was 0.75 and the IC50 ([3]; Homo sapiens, MCF7, MTT, read-out: In Vitro Cytotoxicity IC50 (µg/mL) MCF-7) was 86.8 ± 3.9 µg/mL (≈ 411 µM). For the same compound, the “Selectivity Index MCF-7” value [3, 6] was 0.71, the zone of inhibition at 1000 µg/mL ([4]; Pseudomonas aeruginosa, isolated compounds 1 mg/mL, read-out: P. aeruginosa Diameter of Inhibition Zone (mm)) was 3.8 ± 0.2 mm and the “P. aeruginosa %Activity Index” value ([4]; 1 mg/mL, relative to ciprofloxacin) was 16.5%. The “Histopathology of paw skin (H&E)” value ([5]; Group 6, 40 mg/kg) was “substantial reduction in dermal inflammation” and the “Histopathology of paw skin (H&E)” value ([5]; oral 20 mg/kg) was “moderate decrease in both inflammation and leukocyte infiltration”.
